Key:
Pgp (LCC6MDR cells) = Pgp (LCC6MDR cells) (Homo sapiens, UniProt P08183); assay: Cell proliferation assay: Pgp-modulating activity, reversal of anticancer drug resistance in LCC6MDR cells; conditions: for EC50: EC50 of compounds for reversing anticancer drug resistance (nM), Paclitaxel; for EC50 / RF (Relative Fold), cpd at 0.5 μM / RF (Relative Fold), cpd at 1 μM: LCC6MDR; for Therapeutic index: IC50 of compounds for L929/EC50 of compounds for lowering paclitaxel drug resistance; for RF (Relative Fold), cpd at 0.5 μM: RF = (IC50 without modulator)/(IC50 with 0.5 μM modulator); for RF (Relative Fold), cpd at 0.5 μM / RF (Relative Fold), cpd at 1 μM: paclitaxel; for RF (Relative Fold), cpd at 1 μM: RF = (IC50 without modulator)/(IC50 with 1.0 μM modulator)
Pgp (LCC6MDR cells), sequence (P08183 whole entry): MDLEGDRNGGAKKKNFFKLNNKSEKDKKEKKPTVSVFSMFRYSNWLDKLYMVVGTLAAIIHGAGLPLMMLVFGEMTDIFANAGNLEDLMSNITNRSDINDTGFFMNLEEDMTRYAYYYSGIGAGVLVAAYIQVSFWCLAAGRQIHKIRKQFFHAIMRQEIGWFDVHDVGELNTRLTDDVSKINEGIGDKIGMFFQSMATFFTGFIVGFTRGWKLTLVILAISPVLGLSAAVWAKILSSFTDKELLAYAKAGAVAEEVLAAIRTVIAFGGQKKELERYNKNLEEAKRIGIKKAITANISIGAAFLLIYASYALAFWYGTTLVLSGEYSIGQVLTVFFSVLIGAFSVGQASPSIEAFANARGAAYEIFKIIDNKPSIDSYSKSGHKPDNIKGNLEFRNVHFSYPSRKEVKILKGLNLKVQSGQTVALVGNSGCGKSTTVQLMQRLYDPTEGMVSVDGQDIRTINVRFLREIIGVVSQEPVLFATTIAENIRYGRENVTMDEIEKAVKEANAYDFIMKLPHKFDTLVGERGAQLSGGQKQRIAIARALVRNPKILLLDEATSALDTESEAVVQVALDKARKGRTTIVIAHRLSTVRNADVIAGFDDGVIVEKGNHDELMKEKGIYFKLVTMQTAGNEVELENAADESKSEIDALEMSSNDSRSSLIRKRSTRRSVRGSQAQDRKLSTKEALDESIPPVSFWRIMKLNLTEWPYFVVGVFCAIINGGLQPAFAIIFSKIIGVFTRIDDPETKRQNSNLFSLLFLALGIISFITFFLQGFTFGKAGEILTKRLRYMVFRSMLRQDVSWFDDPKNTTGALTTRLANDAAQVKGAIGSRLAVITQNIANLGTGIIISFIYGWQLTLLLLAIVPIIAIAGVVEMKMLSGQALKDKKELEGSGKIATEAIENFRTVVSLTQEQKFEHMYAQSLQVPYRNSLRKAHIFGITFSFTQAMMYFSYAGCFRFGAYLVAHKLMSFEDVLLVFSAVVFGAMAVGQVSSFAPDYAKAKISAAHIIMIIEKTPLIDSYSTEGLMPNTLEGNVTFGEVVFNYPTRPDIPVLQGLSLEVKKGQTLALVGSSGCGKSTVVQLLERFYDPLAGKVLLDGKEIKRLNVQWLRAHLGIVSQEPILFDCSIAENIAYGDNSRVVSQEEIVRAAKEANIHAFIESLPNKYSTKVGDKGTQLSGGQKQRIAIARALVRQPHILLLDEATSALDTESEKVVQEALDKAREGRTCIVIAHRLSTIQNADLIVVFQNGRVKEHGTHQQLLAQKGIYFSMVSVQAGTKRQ
Procedure: Cell Proliferation Assay. 6,000 cells of LCC6 or LCC6MDR and anticancer drugs (paclitaxel, vinblastine, vincristine, doxorubicin and mitoxantrone) were mixed with or without modulators to a final volume of 200 μL in each well of 96-well plates. […] The plates were then incubated for 5 days at 37° C. […] IC50 values were calculated from the dose-response curves of MTS assays (Prism 4.0).

[1] = Tumor cell line cytotoxicity of flavonoid dimers, LCC6; assay type: cell-based, human; conditions: human, LCC6 cells, IC50 of compound alone
Procedure: (§1) (b) Tumor Cell Line Cytotoxicity. The tumor cytotoxicity assays of flavonoid dimers were performed against LCC6, LCC6MDR and L929 cell lines. […] In brief, LCC6, LCC6MDR and L929 cells were seeded into 96-well flat bottom microtiter plate at 1×10^4 cells per well in a final volume of 100 μL media, respectively. A graded dose of flavonoid dimers was added into wells. The plate was incubated at 37° C. for 72 hrs at the atmosphere 5% CO2 in the air. The % of survivors was determined.

[2] = Tumor cell line cytotoxicity of flavonoid dimers, LCC6MDR; assay type: cell-based, human; conditions: human, LCC6MDR cells, IC50 of compound alone
Procedure: as §1

[3] = Cytotoxicity of flavonoid dimers, L929 mouse fibroblast; assay type: cell-based; conditions: mouse, L929 fibroblast cells, IC50 of compound alone, 72 hrs, mouse fibroblast
Procedure: as §1

EC50 (Pgp (LCC6MDR cells)) | SMILES | Therapeutic index (Pgp (LCC6MDR cells)) | RF (Relative Fold), cpd at 0.5 μM (Pgp (LCC6MDR cells)) | RF (Relative Fold), cpd at 1 μM (Pgp (LCC6MDR cells)) | IC50 at 72 h [1] | IC50 at 72 h [2] | IC50 at 72 h [3]
141 ± 9 nM | O=c1cc(-c2ccc(OCCOCCN(CCOCCOc3ccc(-c4cc(=O)c5ccccc5o4)cc3)Cc3ccc(O)cc3)cc2)oc2ccccc12 [Compound 42d, 1,13-Bis[4′-(4H-chromen-4-on-2-yl)phenyl]-7-(4-hydroxybenzyl)-1,4,10,13-tetraoxa-7-azamidecane] | 34.0 | (117.8) | (117.8) | 5.4 ± 0.6 µM | 5.3 ± 0.7 µM | 4.8 ± 0.3 µM
 | O=c1cc(-c2ccc(OCCOCCN(CCOCCOc3ccc(-c4cc(=O)c5ccccc5o4)cc3)Cc3cc4c(cc3Cl)OCO4)cc2)oc2ccccc12 [Compound 42f, 1,13-Bis[4′-(4H-chromen-4-on-2-yl)phenyl]-7-[5-(6-chloropiperonyl)]-1,4,10,13-tetraoxa-7-azamidecane] |  | (4.8) | (80.6) | > 100 µM | > 100 µM | > 100 µM
 | COc1cccc(CN(CCOCCOc2ccc(-c3cc(=O)c4ccccc4o3)cc2)CCOCCOc2ccc(-c3cc(=O)c4ccccc4o3)cc2)c1 [Compound 43, 1,13-Bis[4′-(4H-chromen-4-on-2-yl)phenyl]-7-(3-methoxybenzyl)-1,4,10,13-tetraoxa-7-azamidecane] |  | (22.5) | (95.7) | > 100 µM | > 100 µM | > 100 µM
 | COc1cc(CN(CCOCCOc2ccc(-c3cc(=O)c4ccccc4o3)cc2)CCOCCOc2ccc(-c3cc(=O)c4ccccc4o3)cc2)cc(OC)c1 [Compound 44, 1,13-Bis[4′-(4H-chromen-4-on-2-yl)phenyl]-7-(3,5-dimethoxybenzyl)-1,4,10,13-tetraoxa-7-azamidecane] |  | (19.1) | (51.0) | > 100 µM | > 100 µM | > 100 µM
 | Cc1cccc(CN(CCOCCOc2ccc(-c3cc(=O)c4ccccc4o3)cc2)CCOCCOc2ccc(-c3cc(=O)c4ccccc4o3)cc2)c1 [Compound 45, 1,13-Bis[4′-(4H-chromen-4-on-2-yl)phenyl]-7-(3-methylbenzyl)-1,4,10,13-tetraoxa-7-azamidecane] |  | (32.6) | (102.1) | 57.7 ± 5.9 µM | > 66 µM | 55 ± 4.4 µM
 | Cc1ccccc1CN(CCOCCOc1ccc(-c2cc(=O)c3ccccc3o2)cc1)CCOCCOc1ccc(-c2cc(=O)c3ccccc3o2)cc1 [Compound 46, 1,13-Bis[4′-(4H-chromen-4-on-2-yl)phenyl]-7-(2-methylbenzyl)-1,4,10,13-tetraoxa-7-azamidecane] |  | (32.6) | (117.8) | > 100 µM | > 100 µM | > 100 µM
 | Cc1ccc(CN(CCOCCOc2ccc(-c3cc(=O)c4ccccc4o3)cc2)CCOCCOc2ccc(-c3cc(=O)c4ccccc4o3)cc2)cc1 [Compound 47, 1,13-Bis[4′-(4H-chromen-4-on-2-yl)phenyl]-7-(4-methylbenzyl)-1,4,10,13-tetraoxa-7-azamidecane] |  | (31.2) | (109.4) | > 100 µM | > 81 µM | 66.4 ± 16.8 µM
 | O=c1cc(-c2ccc(OCCOCCN(CCOCCOc3ccc(-c4cc(=O)c5ccccc5o4)cc3)Cc3cccc(Cl)c3)cc2)oc2ccccc12 [Compound 48, 1,13-Bis[4′-(4H-chromen-4-on-2-yl)phenyl]-7-(3-chlorobenzyl)-1,4,10,13-tetraoxa-7-azamidecane] |  | (19.6) | (80.6) | > 100 µM | > 98 µM | > 100 µM
 | O=c1cc(-c2ccc(OCCOCCN(CCOCCOc3ccc(-c4cc(=O)c5ccccc5o4)cc3)Cc3ccccc3Cl)cc2)oc2ccccc12 [Compound 50, 1,13-Bis[4′-(4H-chromen-4-on-2-yl)phenyl]-7-(2-chlorobenzyl)-1,4,10,13-tetraoxa-7-azamidecane] |  | (11.9) | (95.7) | > 100 µM | > 100 µM | > 100 µM
 | N#Cc1ccc(CN(CCOCCOc2ccc(-c3cc(=O)c4ccccc4o3)cc2)CCOCCOc2ccc(-c3cc(=O)c4ccccc4o3)cc2)cc1 [Compound 51, 1,13-Bis[4′-(4H-chromen-4-on-2-yl)phenyl]-7-(4-cyanobenzyl)-1,4,10,13-tetraoxa-7-azamidecane] |  | (2.6) | (5.9) | > 100 µM | > 100 µM | 25.2 ± 12.4 µM
 | C=Cc1ccc(CN(CCOCCOc2ccc(-c3cc(=O)c4ccccc4o3)cc2)CCOCCOc2ccc(-c3cc(=O)c4ccccc4o3)cc2)cc1 [Compound 52, 1,13-Bis[4′-(4H-chromen-4-on-2-yl)phenyl]-7-(4-vinylbenzyl)-1,4,10,13-tetraoxa-7-azamidecane] |  | (72.9) | (117.8) | 21 ± 4.7 µM | 28.3 ± 8.2 µM | 7.4 ± 1 µM
 | CCc1ccc(CN(CCOCCOc2ccc(-c3cc(=O)c4ccccc4o3)cc2)CCOCCOc2ccc(-c3cc(=O)c4ccccc4o3)cc2)cc1 [Compound 53, 1,13-Bis[4′-(4H-chromen-4-on-2-yl)phenyl]-7-(4-ethylbenzyl)-1,4,10,13-tetraoxa-7-azamidecane] |  | (23.9) | (69.6) | > 100 µM | > 100 µM | 25.4 ± 8.1 µM
188 nM | CC(C)(C)OC(=O)Nc1ccc(CN(CCOCCOc2ccc(-c3cc(=O)c4ccccc4o3)cc2)CCOCCOc2ccc(-c3cc(=O)c4ccccc4o3)cc2)cc1 [Compound 54, 1,13-Bis[4′-(4H-chromen-4-on-2-yl)phenyl]-7-(4-tert-butyloxycarbonylanimobenzyl)-1,4,10,13-tetraoxa-7-azamidecane] | 266.0 | (45.0) | (95.7) | > 50 µM | > 50 µM | > 50 µM
244 nM | Nc1ccc(CN(CCOCCOc2ccc(-c3cc(=O)c4ccccc4o3)cc2)CCOCCOc2ccc(-c3cc(=O)c4ccccc4o3)cc2)cc1 [Compound 55, 1,13-Bis[4′-(4H-chromen-4-on-2-yl)phenyl]-7-(4-aminobenzyl)-1,4,10,13-tetraoxa-7-azamidecane] | 204.9 | (8.8) | (72.9) | > 50 µM | > 50 µM | > 50 µM
 | O=c1cc(-c2ccc(OCCOCCN(CCOCCOc3ccc(-c4cc(=O)c5ccccc5o4)cc3)Cc3cccc(-c4ccccc4)c3)cc2)oc2ccccc12 [Compound 56, 1,13-Bis[4′-(4H-chromen-4-on-2-yl)phenyl]-7-(3-phenylbenzyl)-1,4,10,13-tetraoxa-7-azamidecane] |  | (2.7) | (38.5) | > 100 µM | > 100 µM | > 100 µM
92 ± 11 nM | O=c1cc(-c2ccc(OCCOCCN(CCOCCOc3ccc(-c4cc(=O)c5ccccc5o4)cc3)Cc3ccc4ccccc4c3)cc2)oc2ccccc12 [Compound 58, 1,13-Bis[4′-(4H-chromen-4-on-2-yl)phenyl]-7-(2-naphthalenylmethyl)-1,4,10,13-tetraoxa-7-azamidecane] | 55.4 | (95.7) | (117.8) | 4.8 ± 0.4 µM | 8.9 ± 3.3 µM | 5.1 ± 0.3 µM
 | O=c1cc(-c2ccc(OCCOCCN(CCOCCOc3ccc(-c4cc(=O)c5ccccc5o4)cc3)Cc3nc4ccccc4[nH]3)cc2)oc2ccccc12 [Compound 60, 1,13-Bis[4′-(4H-chromen-4-on-2-yl)phenyl]-7-(2-benzimidazolylmethyl)-1,4,10,13-tetraoxa-7-azamidecane] |  | (21.9) | (117.8) | > 100 µM | > 100 µM | > 70 µM
132 ± 7 nM | O=c1cc(-c2ccc(OCCOCCN(CCOCCOc3ccc(-c4cc(=O)c5ccccc5o4)cc3)CC3CCCCC3)cc2)oc2ccccc12 [Compound 62, 1,13-Bis[4′-(4H-chromen-4-on-2-yl)phenyl]-7-(cyclohexanylmethyl)-1,4,10,13-tetraoxa-7-azamidecane] | 143.2 | (56.7) | (117.8) | 10 ± 4.7 µM | 7.9 ± 2.7 µM | 18.9 ± 2.3 µM
 | O=c1cc(-c2ccc(OCCOCCN(CCOCCOc3ccc(-c4cc(=O)c5ccccc5o4)cc3)Cc3cccnc3)cc2)oc2ccccc12 [Compound 64a, 1,13-Bis[4′-(4H-chromen-4-on-2-yl)phenyl]-7-(3-pyridylmethyl)-1,4,10,13-tetraoxa-7-azamidecane] |  | (8.5) | (46.4) | 5.7 ± 1.4 µM | 4.7 ± 0.2 µM | 2.3 ± 0.2 µM

— US8980848B2, “Flavonoid dimers and their use” (The Hong Kong Polytechnic University, priority 2010, dated 2015)
